Several values for one entry are separate records, joined by “and”; a condition that tells them apart may be missing. Identical values can stand only once.
Columns and labels:
plasma proteins = assay: Fraction bound to plasma proteins, human; assay type: in vitro ADME
[1] = system: rabbits subjected to anterior cruciate ligament transection (ACLT); assay: Rabbit ACLT study, µCT osteophyte volume; assay type: in vivo; conditions: 30 and 100 µmol/kg, data not shown
Procedure: Starting 1 week after sham operation or ACLT, animals were dosed daily for 7 weeks by oral gavage with either MIV-711 (synthesized by Medivir and given as a suspension in 1% Methocel A4C in water) or vehicle (1% Methocel A4C in water) at a dose volume of 4 mL/kg. The four treatment groups (n = 7 in each group) were: (1) sham + vehicle; (2) ACLT + vehicle; (3) ACLT + MIV-711, 30 µmol/kg (low dose) and (4) ACLT + MIV-711, 100 µmol/kg (high dose).
Femora and tibias from all animals were subjected to µCT scanning without and with contrast reagent, to visualize bone and cartilage, respectively. Samples were scanned on a high-resolution, volumetric µCT scanner (μCT40, ScanCo Medical, Zurich, CH). The image data was acquired with the following parameters: 36 μm isotropic voxel resolution at 300 ms exposure time, 2000 views and 1 frame per view. Each sample was scanned twice, once for acquiring bone data and once for soft tissue data. […] After the segmentation process, the voxel count associated with each of the regions of interest was calculated using VHLab. […] Cartilage thickness was calculated using SCIRun (Scientific Computing and Imaging Institute, University of Utah). The distance from the bone to the outer surface of the articulating cartilage was calculated. […] Similarly, the thickness and thickness map image of the subchondral bone was calculated. […]

[2] = system: dogs subjected to partial medial meniscectomy; assay: Dog partial medial meniscectomy study, microscopic lesion width and depth ratio; assay type: in vivo
Procedure: Measurements of width of total lesion of any type (chondrocyte death, cloning, fibrillation, proteoglycan loss) were taken across the tibial and femoral surfaces to give a total lesion width. Significant lesion width (matrix loss extending beyond superficial degeneration; i.e., lesions consisting of changes greater than just proteoglycan loss) was also determined in an attempt to convey possible treatment differences based on evaluation of more serious and permanent/irreversible cartilage matrix changes. Multiple depth measurements in areas of greatest lesion severity were taken for each of the 4 quadrants in each of the 3 anterior to posterior sections. These consisted of measurements taken from the surface (or estimated original surface when severe degenerative changes are present) to the point where cartilage appeared normal. A second measurement was taken in this same area to the depth of the tidemark so that the number expressed is a ratio of lesion depth vs. depth of tidemark. The mean values for each quadrant (medial to lateral) for the 3 anterior to posterior sections were determined as well as an overall mean for the joint. In this measurement, the minor changes consisting of proteoglycan loss only are not measured and only lesions with definite chondrocyte loss and sometimes fibrillation are included. This parameter should reflect a similar result to the significant width measurement as it is an indicator of beneficial effects on the more severe pathology.

dog cathepsin K enzyme = conditions: read-out: Ki against dog cathepsin K enzyme; cited from earlier work
[3] = dog, individual animals of MIV-711 group
[4] = dog, mean of zones, individual animals of MIV-711 group
[5] = dog, mean of zones, versus Vehicle
[6] = individual dogs of MIV-711 group, mean of the 4 quadrants
[7] = individual dogs of MIV-711 group, width of any cartilage lesion, mean of 3 sections
[8] = individual dogs of MIV-711 group, width of degeneration with score of 1 or greater

C#C[C@@H]1CN(C(=O)[C@H](CC(C)C)NC(=O)c2ccc(-c3nc(N4CCN(C)CC4)sc3F)cc2)[C@@H]2C(=O)CO[C@H]12 [MIV-711]
fraction bound to plasma proteins (plasma proteins): 94% | effect on osteophyte volumes in femur and tibia (µCT) [1]: not apparently affected | Femur Cartilage Degeneration Width Sig ([2]; MIV-711 group mean): 994.3 µm | Femur Cartilage Degeneration Width Total ([2]; MIV-711 group mean): 3661.0 µm | Femur Mean DRAMC (Depth Ratio Any Matrix Change) ([2]; MIV-711 group mean): 0.084 | Tibia Cartilage Degeneration Width Sig ([2]; MIV-711 group mean): 2105.6 µm | Tibia Cartilage Degeneration Width Total ([2]; MIV-711 group mean): 7336.0 µm | Tibia Mean DRAMC (Depth Ratio Any Matrix Change) ([2]; MIV-711 group mean): 0.13 | % inhibition, Femur Cartilage Degeneration Width Sig ([2]; MIV-711 group vs vehicle): 11% | % inhibition, Femur Cartilage Degeneration Width Total ([2]; MIV-711 group vs vehicle): 13% | % inhibition, Femur Mean DRAMC ([2]; MIV-711 group vs vehicle): -9% | % inhibition, Tibia Cartilage Degeneration Width Sig ([2]; MIV-711 group vs vehicle): 5% | % inhibition, Tibia Cartilage Degeneration Width Total ([2]; MIV-711 group vs vehicle): 0% | % inhibition, Tibia Mean DRAMC ([2]; MIV-711 group vs vehicle): 17% | Femur Depth Ratio Any Matrix Change Zone 1 ([2]; dog, group Mean): 0.15 | Femur Depth Ratio Any Matrix Change Zone 2 ([2]; dog, group Mean): 0.13 | Femur Depth Ratio Any Matrix Change Zone 3 ([2]; dog, group Mean): 0.05 | Femur Depth Ratio Any Matrix Change Zone 4 ([2]; dog, group Mean): 0.01 | Tibia Depth Ratio Any Matrix Change Zone 1 ([2]; dog, group Mean): 0.05 | Tibia Depth Ratio Any Matrix Change Zone 2 ([2]; dog, group Mean): 0.31 | Tibia Depth Ratio Any Matrix Change Zone 3 ([2]; dog, group Mean): 0.11 | Tibia Depth Ratio Any Matrix Change Zone 4 ([2]; dog, group Mean): 0.04 | Femur Depth Ratio Any Matrix Change Zone 1 [2, 3]: 0.08 and 0.07 and 0.01 and 0.42 and 0.19 and 0.10 and 0.09 and 0.22 and 0.50 and 0.06 and 0.23 | Femur Depth Ratio Any Matrix Change Zone 2 [2, 3]: 0.13 and 0.16 and 0.00 and 0.36 and 0.08 and 0.10 and 0.01 and 0.06 and 0.09 and 0.48 and 0.05 and 0.24 | Femur Depth Ratio Any Matrix Change Zone 3 [2, 3]: 0.04 and 0.03 and 0.00 and 0.33 and 0.01 and 0.02 and 0.21 | Femur Depth Ratio Any Matrix Change Zone 4 [2, 3]: 0.00 and 0.01 and 0.02 and 0.06 | Tibia Depth Ratio Any Matrix Change Zone 1 [2, 3]: 0.06 and 0.08 and 0.01 and 0.09 and 0.03 and 0.13 and 0.00 and 0.15 and 0.11 | Tibia Depth Ratio Any Matrix Change Zone 2 [2, 3]: 0.28 and 0.23 and 0.35 and 0.24 and 0.27 and 0.36 and 0.39 and 0.22 and 0.47 and 0.33 and 0.30 and 0.19 | Tibia Depth Ratio Any Matrix Change Zone 3 [2, 3]: 0.14 and 0.11 and 0.18 and 0.08 and 0.15 and 0.07 and 0.24 and 0.06 and 0.04 and 0.19 and 0.03 and 0.05 | Tibia Depth Ratio Any Matrix Change Zone 4 [2, 3]: 0.05 and 0.04 and 0.00 and 0.07 and 0.06 and 0.01 and 0.03 and 0.02 | Femur Depth Ratio Any Matrix Change Mean ([2]; dog, mean of zones, group Mean): 0.08 | Tibia Depth Ratio Any Matrix Change Mean ([2]; dog, mean of zones, group Mean): 0.13 | Femur Depth Ratio Any Matrix Change Mean [2, 4]: 0.06 and 0.07 and 0.00 and 0.28 and 0.04 and 0.03 and 0.01 and 0.08 and 0.31 and 0.12 | Tibia Depth Ratio Any Matrix Change Mean [2, 4]: 0.13 and 0.11 and 0.17 and 0.09 and 0.15 and 0.16 and 0.07 and 0.14 and 0.20 | % inhibition, Femur Depth Ratio Any Matrix Change Mean [2, 5]: -9% | % inhibition, Tibia Depth Ratio Any Matrix Change Mean [2, 5]: 17% | % inhibition, Femur Depth Ratio Any Matrix Change Zone 1 ([2]; dog, versus Vehicle): -39% | % inhibition, Femur Depth Ratio Any Matrix Change Zone 2 ([2]; dog, versus Vehicle): 10% | % inhibition, Femur Depth Ratio Any Matrix Change Zone 3 ([2]; dog, versus Vehicle): -12% | % inhibition, Femur Depth Ratio Any Matrix Change Zone 4 ([2]; dog, versus Vehicle): 44% | % inhibition, Tibia Depth Ratio Any Matrix Change Zone 1 ([2]; dog, versus Vehicle): 55% | % inhibition, Tibia Depth Ratio Any Matrix Change Zone 2 ([2]; dog, versus Vehicle): -2% | % inhibition, Tibia Depth Ratio Any Matrix Change Zone 3 ([2]; dog, versus Vehicle): 23% | % inhibition, Tibia Depth Ratio Any Matrix Change Zone 4 ([2]; dog, versus Vehicle): 19% | Femur Mean DRAMC (Depth Ratio Any Matrix Change) [2, 6]: 0.04 and 0.06 and 0.07 and 0.00 and 0.28 and 0.03 and 0.01 and 0.08 and 0.31 and 0.12 | Tibia Mean DRAMC (Depth Ratio Any Matrix Change) [2, 6]: 0.07 and 0.13 and 0.11 and 0.17 and 0.09 and 0.15 and 0.16 and 0.14 and 0.20 | Femur Cartilage Degeneration Width Total [2, 7]: 3885 µm and 4200 µm and 4410 µm and 630 µm and 5040 µm and 3780 µm and 2310 µm and 3990 µm and 5880 µm and 2730 µm and 3675 µm | Tibia Cartilage Degeneration Width Total [2, 7]: 6405 µm and 6510 µm and 8190 µm and 7560 µm and 8400 µm and 7980 µm and 6195 µm and 6930 µm and 6615 µm and 7245 µm and 7770 µm | Femur Cartilage Degeneration Width Sig [2, 8]: 0 µm and 735 µm and 1260 µm and 3465 µm and 200 µm and 968 µm and 420 µm and 1890 µm and 733 µm and 815 µm and 3360 µm and 1068 µm | Tibia Cartilage Degeneration Width Sig [2, 8]: 1638 µm and 1890 µm and 2310 µm and 1470 µm and 2520 µm and 2205 µm and 1155 µm and 3150 µm and 1575 µm and 1218 µm and 2163 µm and 4515 µm and 1785 µm | Ki (dog cathepsin K enzyme): 1.5 nM
